pKd: −log10 of the molar value. Entries after “also recorded” stand apart in the source; their conditions may differ. Bridges are numbered along the chain shown (N, C = ends). Where no end group is shown, it is not given here.
Experiments:
anti-MPA [1] = assay: Plate-based phage ELISA, direct and competitive; format: binding
Protocol: The assay was carried out at room temperature (RT). The biotinylated anti-MPA (Supporting Information) [5 μg mL^–1 in the assay buffer (SuperBlock supplemented with 0.05% Tween-20); 100 μL per well] was immobilized on streptavidin-coated wells (30 min), followed by three-time washes with PBST. The wells were then blocked with 280 μL of assay buffer for 30 min and washed again three times with PBS. Then, the amplified phage stock (between 10^10 and 10^11 pfu mL^–1; 100 μL per well) was added to the wells in assay buffer and incubated for 1 h with slow shaking. After washing the wells as described above, the HRP-conjugated anti-M13 monoclonal antibody (1:5000 dilution in assay buffer; 100 μL per well) was added to the wells and incubated for 1 h. Finally, the plate was washed three times as described above and 100 μL of ABTS was added to the wells. After 5 min, absorbance at 405 nm was measured in a Varioskan plate reader (Thermo Scientific).
(§1) Briefly, black microtiter plates were blocked with 280 μL of assay buffer for 1 h at RT and subsequently washed three times with PBS. Then, the biotinylated anti-MPA (1.2 μg mL^–1) and neutravidin-coated magnetic beads (125 μg mL^–1) functionalized as described before,[18] were added to the wells in the assay buffer (total volume 260 μL per well), and incubated for 30 min at RT. After washing the beads using a plate washer with a magnetic support, the phage clone (10^11 pfu mL^–1) and increasing concentrations of free MPA were added to the wells (in assay buffer, 60 μL per well) and incubated for 30 min at RT. The beads were washed again to remove the excess, followed by incubation with HRP-conjugated anti-M13 antibody (1:5000 dilution in assay buffer; 80 μL per well) for 30 min at RT. Finally, after washing, 80 μL of Amplex UltraRed solution was added to each well, and the fluorescence was monitored with a CLARIOstar microplate reader (BMG Labtech) (λex = 530 nm and λem = 590 nm).

[2] = tested on: biotinylated anti-MPA Fab antibody; assay: Bioluminescent bead-based competitive immunoassay with A2-NanoLuc / NanoLuc-A2 tracer; format: binding; conditions: for Cross-reactivity: IC50 for MPA divided by the IC50 of the interferent
Protocol: (§2) To detect MPA with the A2-NanoLuc fusion protein, a bead-based assay was carried out on a black microtiter well plate by immobilizing the biotinylated anti-MPA onto streptavidin-coated magnetic beads (Figure 1). Briefly, the wells were first blocked with assay buffer (SuperBlock with 0.05% Tween-20) for 1 h. Then, 60 μL of 5 μg mL^–1 biotinylated anti-MPA in assay buffer and 20 μL of streptavidin beads (1:50 dilution from the stock) were added to the wells and incubated for 30 min at RT. After washing three times with PBST, 60 μL of a solution containing different concentrations of MPA and 77 μg mL^–1 of the A2-NanoLuc in assay buffer was added to the wells and incubated 30 min at RT. Once the beads were washed, 60 μL of NanoGLO substrate in PBS were added and bioluminescence was measured after a 2 min incubation at 470 nm with a bandwidth of 80 nm using a CLARIOstar microplate reader.
The matrix effect was tested in the presence of different dilutions of the ultrafiltered serum samples [1/2, 1/6, and 1/8, (v/v)], treated following a previously described procedure,[11] in PBST. […] Therefore, such dilution was used for further experiments.

[3] = human, in vivo
Protocol: Volunteers donated whole blood samples with permission from the Ethics Committee from Hospital Clínico Universitario de Valladolid, Spain (no. PI 21-2245). The blood samples were kept at 20 °C during transport and storage. The samples were treated following the procedure described previously (see the Supporting Information for details).[11]
100µL of a 0.1 µg mL−1 bi o -A2 solution were added to the neutravidin-functionalized beads
solution as described before. After a 30-min incubation and a similar washing step, 100 µL of a
solution containing 0.5µg mL −1 of anti-MPA and different concentrations of free MPA,
previously incubated during 10 min, were added to the beads and incubated for another 30 m in.
After washing, an anti-IgG-HRP antibody was added, incubated 30 min and washed thereafter.
Finally, 80 µL of Amplex UltraRed was added and the fluorescence was monitored as described
The optimized separation of the three metabolites was performed in gradient elution mode,
quantified using an internal standard (MPA-LuciferYellow) calibration model using a nine-point
calibration curve, with a concentration range (0.5–80 ng mL −1 for MPA; 50–15000ng mL−1 f or
MPAG and 12– 250ng mL−1 for Acyl-MPAG) for the three metabolites. […]
analyzed. Free MPA was analyzed in plasma samples after a 1:8 dilution in SuperBlock + 0.05% […]

anti-MPA Fab antibody = assay: SPR (Biacore T200), 1:1 Langmuir kinetics, binding to immobilized anti-MPA Fab; conditions: for Dissociation rate constant kd: Biacore T200, CM5 chip, anti-MPA (14) Fab immobilized, anti-OTA Fab reference, 1x PBS-P, +25 °C, dissociation phase 5 min, averages (± SE), seven concentrations; for Binding to anti-MPA Fab surface: SPR, concentration-dependent responses
From the text: To compare the binding properties of the biotinylated cyclic peptide and MPA toward the anti-MPA antibody, label-free SPR technology was applied. In the binding experiments, previously identified, produced, and purified Fab antibodies recognizing either MPA or ochratoxin A were immobilized onto sensor chip surfaces.[22] The same experimental conditions were used to study the binding properties of cyclic peptide (A2) and MPA. The results are presented in Figures S3 and S4 and summarized in Table S1 (Supporting Information).
(§3) solution as described before.
(§4) (OTA) Fab fragment on reference surface (flow channel 1). As running buffer, 1× PBS-P
(§5) After dissociation phase of 5 min, regeneration
followed by stabilization period of 60s. All samples were analyzed in replicates. […]

anti-MPA [4] = assay: Bead-based competitive immunoassay with synthetic biotinylated peptide A2; format: binding
[5] = serum; cited from earlier work
From the text: Mycophenolic acid (MPA) is a mycotoxin produced by Penicillium fungi, and it is widely used as an immunosuppressant drug to prevent organ rejection in transplanted patients.[1] Recently, it has also been tested as a chemotherapeutic agent as it inhibits the proliferation of cancer cells.[2] Due to the small therapeutic window that MPA has, it is very important to monitor correctly its levels inside the human body.[3] MPA is mainly found in the serum, but only 1% of the total MPA exists in the free form, which is the one responsible for its pharmacological activity.[3],[4] Therefore, the availa ...

[6] = Biosensor analysis of blood samples of patients and healthy controls; format: in vivo, human; conditions: free MPA
Protocol: as §2, §3, §4, §5
followed by stabilization period of 60s. All samples were analyzed in replicates. The result s were
for MPAG, Acyl-MPAG and MPA respectively. The rt were reproducible between runs. Fig ure
The three metabolites were
curves was >0.99 for all compounds tested.
and centrifuged at 12,045 g for 30 min.
samples and vortexed for 5 minutes at 1000 rpm. […]

anti-MPA [7] = assay: Bead-based competitive phage immunoassay with clone A2; format: binding; conditions: Amplex UltraRed fluorescence, n = 3
Protocol: as §1

[8] = A2-NanoLuc bead-based bioluminescent assay, n = 3

ACEGLYAHWC (disulfide 2-10 (inferred)) [A2, phage clone displaying […] with a disulfide bond between the two cysteines; MPA mimetic]
Signal in competitive ELISA in the presence of free MPA (anti-MPA [1]; 100 ng/mL free MPA added with phage clone A2, data not shown): significant decrease in the signal | Nonspecific binding (anti-MPA [1]; phage ELISA in the absence of anti-MPA): very low nonspecific binding | Phage ELISA binding to anti-MPA (anti-MPA [1]; phage clone vs immobilized biotinylated anti-MPA, signal-to-background, ABTS, absorbance 405 nm): very high signal-to-background ratio; also recorded: high specificity toward anti-MPA

COc1c(C)c2c(c(O)c1C/C=C(\C)CCC(=O)O[C@@H]1O[C@H](C(=O)O)[C@@H](O)[C@H](O)[C@H]1O)C(=O)OC2 [acyl-MPAG, acyl-mycophenolic acid glucuronide]
Cross-reactivity [2, 8]: 58% | Behavior in the assay compared to MPA ([2]; cross-reactivity test, A2-NanoLuc bead-based bioluminescent assay): very similar behavior to MPA

COc1c(C)c2c(c(O[C@@H]3O[C@H](C(=O)O)[C@@H](O)[C@H](O)[C@H]3O)c1C/C=C(\C)CCC(=O)O)C(=O)OC2 [MPAG, mycophenolic acid glucuronide]
Cross-reactivity [2, 8]: 0.03% | MPAG level in samples vs biosensor [3]: below the limit of quantification of the biosensor

A(CEGLYAHWC)GGGSK(Bio)-NH2 (disulfide) [Cyclic peptide (A2)]
Dissociation rate constant kd (anti-MPA Fab antibody): 0.583 ± 0.001 s⁻¹ | Binding to anti-MPA Fab surface (anti-MPA Fab antibody): showed binding to the anti-MPA Fab antibody surface | Association / dissociation relative to MPA (anti-MPA Fab antibody; compared to MPA–anti-MPA Fab antibody complex): slower association and faster dissociation | Competition with free MPA (anti-MPA [4]; synthetic biotinylated peptide, competitive neutravidin bead-based assay): competition at the nanomolar level

C=CC[C@@H]1/C=C(\C)C[C@H](C)C[C@H](OC)[C@H]2O[C@@](O)(C(=O)C(=O)N3CCCC[C@H]3C(=O)O[C@H](/C(C)=C/[C@@H]3CC[C@@H](O)[C@H](OC)C3)[C@H](C)[C@@H](O)CC1=O)[C@H](C)C[C@@H]2OC [tacrolimus]
Cross-reactivity [2, 8]: lower than 0.03%

COc1c(C)c2c(c(O)c1C/C=C(\C)CCC(=O)O)C(=O)OC2 [MPA, Mycophenolic acid]
Dynamic range (20–80% inhibition) ([2]; A2-NanoLuc tracer, assay buffer, bioluminescence, n = 3): 0.64–14 ng mL^–1 | Matrix effect on dose response curve ([2]; PBST vs ultrafiltered serum diluted 1/8 (v/v), p > 0.05, n = 3): No significant differences | LOD (10% inhibition) ([2]; free MPA competing with A2-NanoLuc (77 μg/mL) for biotinylated anti-MPA on streptavidin beads, assay buffer (SuperBlock + 0.05% Tween-20), RT, 30 min, bioluminescence 470 nm, n = 3): 0.26 ng mL^–1 | IC50 ([2]; free MPA competing with A2-NanoLuc (77 μg/mL) for biotinylated anti-MPA on streptavidin beads, assay buffer, RT, 30 min, bioluminescence 470 nm, logistic fit, n = 3): 2.9 ± 0.5 ng mL^–1 | Dissociation rate constant kd (anti-MPA Fab antibody): 0.0741 ± 0.0004 s⁻¹ | pKd (anti-MPA Fab antibody; MPA and anti-MPA Fab interaction, in agreement with previous SPR affinity in solution results, read-out: Affinity constant): ~7.40 | Binding to anti-MPA Fab surface (anti-MPA Fab antibody): showed binding to the anti-MPA Fab antibody surface | Free form of total MPA [5]: 1% | MPA detected in control samples ([6]; healthy controls H1–H3): no MPA was detected in the control samples | MPA concentration levels by patient ([6]; transplanted patients T1–T5): patients T1 and T2 had the highest MPA concentration levels | LOD (10% inhibition) (anti-MPA [7]; free MPA competing with phage clone A2 (10^11 pfu/mL), neutravidin beads with biotinylated anti-MPA, assay buffer, RT, 30 min): 0.69 ng mL^–1 | Dynamic range (20–80% inhibition) (anti-MPA [7]; phage clone A2 (10^11 pfu/mL), neutravidin beads): 1.0–4.1 ng mL^–1 | Dynamic range (20–80% inhibition) (anti-MPA [4]; biotinylated A2 peptide (0.1 µg/mL) on neutravidin beads, anti-MPA 0.5 µg/mL, Amplex UltraRed fluorescence, n = 3): 2.4–60 ng mL^–1 | LOD (10% inhibition) (anti-MPA [4]; free MPA, biotinylated A2 peptide (0.1 µg/mL) on neutravidin beads, anti-MPA 0.5 µg/mL pre-incubated 10 min with MPA, 30 min, anti-IgG-HRP, Amplex UltraRed fluorescence, n = 3): 0.94 ng mL^–1

cyclosporin
Cross-reactivity [2, 8]: lower than 0.03%

— publication PMC8478282, “Recombinant Peptide Mimetic NanoLuc Tracer for Sensitive Immunodetection of Mycophenolic Acid” (Analytical Chemistry, 2021)
